# Assay results from publication PMC11643494, “Structure–Activity Relationship Studies in a Series of 2-Aryloxy-N-(pyrimidin-5-yl)acetamide Inhibitors of SLACK Potassium Channels” (Molecules, 2024).
# Where two headings read alike, the source gives them in different places.
# Legend:
# [1] = biological target: T1, WT human SLACK (Homo sapiens, UniProt Q5JUK3); test: Whole-cell automated patch clamp (APC) in CHO-K1 cells stably expressing WT human SLACK; assay type: cell-based; settings: for IC50 / WT SLACK inhibition, result in words: APC; for IC50: CHO-K1 cells stably expressing WT human SLACK, averages (n ≥ 3); for Fold less potent than hit 10 (SLACK inhibition): ratio of WT SLACK APC IC50 to hit 10; for WT SLACK inhibition, result in words: concentrations 0.125 to 30 µM; for SLACK Imax: maximum inhibition at 30 µM test compound standardized to VU0606170 (set at 100%), WT human SLACK
# T1 construct: host or cells: CHO-K1
# T1 sequence (Q5JUK3 1-1235 isoform Q5JUK3-3): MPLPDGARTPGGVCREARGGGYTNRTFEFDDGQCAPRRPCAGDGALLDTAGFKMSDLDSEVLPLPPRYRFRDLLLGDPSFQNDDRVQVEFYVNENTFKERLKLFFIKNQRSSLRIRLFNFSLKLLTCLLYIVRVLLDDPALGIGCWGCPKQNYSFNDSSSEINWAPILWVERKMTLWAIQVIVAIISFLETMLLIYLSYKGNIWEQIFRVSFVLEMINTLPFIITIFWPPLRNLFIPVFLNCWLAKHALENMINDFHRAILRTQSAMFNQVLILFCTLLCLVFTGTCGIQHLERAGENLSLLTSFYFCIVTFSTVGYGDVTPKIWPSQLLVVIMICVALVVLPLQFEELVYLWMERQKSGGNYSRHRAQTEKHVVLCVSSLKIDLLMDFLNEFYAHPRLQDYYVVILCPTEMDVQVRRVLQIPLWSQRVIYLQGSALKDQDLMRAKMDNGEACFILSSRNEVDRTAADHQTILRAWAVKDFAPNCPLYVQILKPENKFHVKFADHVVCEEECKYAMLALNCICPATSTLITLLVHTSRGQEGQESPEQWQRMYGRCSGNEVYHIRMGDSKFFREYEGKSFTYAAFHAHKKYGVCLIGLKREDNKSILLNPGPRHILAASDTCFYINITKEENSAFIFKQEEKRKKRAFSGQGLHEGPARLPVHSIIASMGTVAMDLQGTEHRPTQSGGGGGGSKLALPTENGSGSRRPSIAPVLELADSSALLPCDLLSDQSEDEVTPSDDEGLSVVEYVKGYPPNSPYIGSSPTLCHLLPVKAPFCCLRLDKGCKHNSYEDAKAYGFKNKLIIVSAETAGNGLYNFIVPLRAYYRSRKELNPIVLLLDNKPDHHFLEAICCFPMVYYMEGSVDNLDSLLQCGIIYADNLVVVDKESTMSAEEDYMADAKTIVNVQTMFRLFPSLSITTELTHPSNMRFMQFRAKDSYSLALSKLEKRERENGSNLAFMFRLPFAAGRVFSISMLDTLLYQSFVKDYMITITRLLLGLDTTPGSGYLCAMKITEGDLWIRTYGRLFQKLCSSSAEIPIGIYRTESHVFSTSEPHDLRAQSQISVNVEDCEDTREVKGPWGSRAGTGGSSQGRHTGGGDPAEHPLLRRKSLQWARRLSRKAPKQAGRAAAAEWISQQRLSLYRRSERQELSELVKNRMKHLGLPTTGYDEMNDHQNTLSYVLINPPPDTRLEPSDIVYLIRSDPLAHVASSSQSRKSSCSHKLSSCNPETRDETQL
# Method: Using concentrations ranging from 0.125 to 30 µM in half-log steps, a concentration–response relationship was generated for each new analog using our APC assay in CHO-K1 cells stably expressing WT SLACK. A minimum of three cells, i.e., replicates, were collected per concentration for each analog.
# Automated patch clamp recording was performed with a SyncroPatch 768 PE system (Nanion, Munich, Germany) as previously described. Whole-cell recordings were performed at room temperature. Cells were harvested by first washing with PBS without Mg^2+ or Ca^2+ (Gibco, Billings, MT, USA) to remove cell culture medium, followed by dissociation with TryPLE (Gibco, Billings, MT, USA). Cells were then resuspended and diluted to 200,000 cells/mL in external solution. External solution contained 105 mM NaCl, 4 mM KCl, 1 mM MgCl2, 5 mM CaCl2, 10 mM HEPES, 40 mM N-Methyl-D-glucamine chloride, titrated to pH 7.4 with NaOH and osmolarity of 300 mOsm/kg; internal solution contained 70 mM NaCl, 70 mM KF, 10 mM KCl, 5 mM EGTA, 5mM HEPES, titrated to a pH 7.2 with KOH and osmolarity of 295 mOsm/kg.
# The APC protocol was set as following: Cells were held at […] −80 mV for 100 ms, then a ramp protocol was performed from −100 mV to 80 mV at 0.4 mV/ms, hold the cell at −80 mV for another 100 ms, then steps were performed at −20 mV, 0 mV, +20 mV, +40 mV, and +60 mV for 100 ms of each step. Whole-cell currents were measured at 0 mV and normalized to current after external buffer addition.
# [2] = tested on: WT SLACK; design: method as in PMID 32408169; settings: whole-cell patch clamp electrophysiology; read-out: IC50 versus WT SLACK; cited from earlier work
# [3] = tested on: hERG (Kv11.1) channel; design: method as in PMID 32408169; settings: 10 µM; cited from earlier work
# [4] = tested on: SLACK; design: method as in earlier work; settings: patent application, no specific values reported; cited from earlier work
# [5] = tested on: WT SLACK; settings: whole-cell APC; read-out: APC IC50 versus WT SLACK; cited from earlier work
# [6] = tested on: hERG; settings: Tl+-flux, 10 µM; cited from earlier work
# [7] = tested on: A934T SLACK; settings: cited from earlier work
IC50 [1],SLACK Imax [1],SMILES,"WT SLACK inhibition, result in words [1]",other results
2.9 µM,–,Cc1ccccc1OC(C)(C)C(=O)Nc1cnc(Oc2ccccc2F)nc1 [Analog 50],–,Fold less potent than hit 10 (SLACK inhibition) [1]: approximately 2 fold
–,–,Cc1cccc(OC(C)(C)C(=O)Nc2cnc(Oc3ccccc3F)nc2)c1 [Analog 51],inactive up to the top concentration of 30 µM,–
7.1 µM,97%,Cc1ccc(OC(C)(C)C(=O)Nc2cnc(Oc3ccccc3F)nc2)cc1 [Analog 52],–,–
–,–,CC(C)(Oc1ccccc1C(F)(F)F)C(=O)Nc1cnc(Oc2ccccc2F)nc1 [Analog 53],inactive up to the top concentration of 30 µM,–
3.7 µM,99%,CC(C)(Oc1cccc(C(F)(F)F)c1)C(=O)Nc1cnc(Oc2ccccc2F)nc1 [Analog 54],–,–
2.8 µM,101%,CC(C)(Oc1ccc(C(F)(F)F)cc1)C(=O)Nc1cnc(Oc2ccccc2F)nc1 [Analog 55],–,Fold less potent than hit 10 (SLACK inhibition) [1]: approximately 2 fold
–,–,CC(C)(Oc1ccccc1OC(F)(F)F)C(=O)Nc1cnc(Oc2ccccc2F)nc1 [Analog 56],inactive up to the top concentration of 30 µM,–
4.6 µM,98%,CC(C)(Oc1cccc(OC(F)(F)F)c1)C(=O)Nc1cnc(Oc2ccccc2F)nc1 [Analog 57],–,–
> 10 µM,104%,CC(C)(Oc1ccc(OC(F)(F)F)cc1)C(=O)Nc1cnc(Oc2ccccc2F)nc1 [Analog 58],only weak inhibitors,–
> 10 µM,109%,CC(C)(Oc1ccc(C#N)cc1)C(=O)Nc1cnc(Oc2ccccc2F)nc1 [Analog 59],only weak inhibitors,–
–,–,CC(C)(Oc1ccc(S(C)(=O)=O)cc1)C(=O)Nc1cnc(Oc2ccccc2F)nc1 [Analog 60],inactive up to the top concentration of 30 µM,–
–,–,CC(C)(Oc1ccc(C(N)=O)cc1)C(=O)Nc1cnc(Oc2ccccc2F)nc1 [Analog 61],inactive up to the top concentration of 30 µM,–
4.1 µM,–,CC(C)(Oc1ccc(S(F)(F)(F)(F)F)cc1)C(=O)Nc1cnc(Oc2ccccc2F)nc1 [Analog 62],–,–
0.89 µM,101%,CC(C)(Oc1ccc(Cl)cc1)C(=O)Nc1cnc(Sc2ccccc2F)nc1 [Analog 63],–,–
–,–,CC(C)(Oc1ccc(Cl)cc1)C(=O)Nc1cnc(Nc2ccccc2F)nc1 [Analog 64],not tolerated,–
2.1 µM,–,CN(c1ncc(NC(=O)C(C)(C)Oc2ccc(Cl)cc2)cn1)c1ccccc1F [Analog 65],–,–
1.4 µM,101%,CN(c1ccc(S(C)(=O)=O)cc1)c1ncc(NC(=O)C(C)(C)Oc2ccc(Cl)cc2)cn1 [Analog 67],–,–
4.1 µM,–,CC(C)(Sc1ccc(Cl)cc1)C(=O)Nc1cnc(Oc2ccccc2F)nc1 [Analog 68],–,Fold less potent than hit 10 (SLACK inhibition) [1]: approximately 3 fold

IC50 [1],SLACK Imax [1],SMILES,"WT SLACK inhibition, result in words [1]",other results
2.7 µM,–,CC(C)(Nc1ccc(Cl)cc1)C(=O)Nc1cnc(Oc2ccccc2F)nc1 [Analog 69],–,Fold less potent than hit 10 (SLACK inhibition) [1]: ~2 fold
7.2 µM,–,CC(C)(Cc1ccc(Cl)cc1)C(=O)Nc1cnc(Oc2ccccc2F)nc1 [Analog 73],–,Fold less potent than hit 10 (SLACK inhibition) [1]: 5 fold
5.1 µM,102%,O=C(CCc1ccc(Cl)cc1)Nc1cnc(Oc2ccccc2F)nc1 [Analog 74],–,–
–,–,O=C(COc1ccc(Cl)cc1)Nc1cnc(Oc2ccccc2F)nc1 [Analog 75],inactive,–
2.1 µM,–,O=C(Nc1cnc(Oc2ccccc2F)nc1)C(F)(F)Oc1ccc(Cl)cc1 [Analog 79],–,–
–,–,CNCc1ccc(Cl)cc1 [Analog 80],only a weak inhibitor,–
> 10 µM,79%,CN(Cc1ccc(Cl)cc1)C(=O)Nc1cnc(Oc2ccccc2F)nc1 [Analog 82],–,–
3.1 µM,–,CC(C)(Oc1ccc(Cl)cc1)C(=O)Nc1ccc(Oc2ccccc2F)nc1 [Analog 86],–,Fold less potent than hit 10 (SLACK inhibition) [1]: ~2 fold
1.8 µM,–,CC(C)(Oc1ccc(Cl)cc1)C(=O)Nc1cnc(Oc2ccccc2F)c(C#N)c1 [Analog 87],–,–
4.9 µM,92%,CC(C)(Oc1ccc(Cl)cc1)C(=O)Nc1ccc(Oc2ccccc2F)cc1 [Analog 88],–,Fold less active than pyridine 86 ([1]; WT SLACK APC IC50): 1.6 fold; Fold less potent than hit 10 (SLACK inhibition) [1]: 3.5 fold
> 10 µM,52%,CC(C)(Oc1ccc(Cl)cc1)C(=O)Nc1ccc(Oc2ccccc2F)cn1 [Analog 89],only weak inhibitors,–
> 10 µM,50%,CC(C)(Oc1ccc(Cl)cc1)C(=O)Nc1cnc(Oc2ccccc2F)cn1 [Analog 90],only weak inhibitors,–
–,–,Cc1cccc(CC(=O)Nc2cnn(-c3cccc(C(=O)NCc4ccccc4-n4cncn4)c3)c2)c1 [Compound 1],–,IC50 [2]: 3.2 µM; hERG (Kv11.1) channel blockade [3]: almost completely blocked the channel
–,–,O=C(Nc1cccc(C(F)(F)F)c1)c1ccc2nc(N3C(=O)c4ccccc4C3=O)sc2c1 [Compound 2],–,IC50 [2]: 3 µM; hERG (Kv11.1) channel blockade [3]: 10–20%
–,–,O=C(Nc1cccc(C(F)(F)F)c1)c1ccc(CSc2nnnn2-c2ccccc2)cc1 [Compound 3],–,IC50 [2]: 1.6 µM; hERG (Kv11.1) channel blockade [3]: 45%
–,–,O=C(N[C@@H]1CCc2cc(Cl)ccc21)c1ccc(S(=O)(=O)N2CCCC2)s1 [Compound 5],–,IC50 [4]: < 1 µM; SLACK IC50 [4]: less than one micromolar
–,–,Cc1ccc2cccc(S(=O)(=O)N3CC(c4nc(-c5ccc(F)cc5)no4)C3)c2n1 [Compound 7],–,"IC50 [5]: 0.32 µM; hERG activity, result in words [6]: inactive; A934T SLACK inhibition, result in words [7]: potent inhibitor"
